Laboratory results: patent publication US20060216774A1 (priority 2003, published 2006)

Tests used:
[1] = tested on: O=C(O)CC(C(=O)O)C(O)C(=O)O; test: purified protein, by the assay type; settings: other: Lineweaver-Burke plot and Cornish-Bowden direct linear plot
isocitrate lyase (icl) = isocitrate lyase (icl) (Escherichia coli, UniProt P0A9G6); settings: read-out: Km of icl; E. coli, substrate isocitrate; cited from earlier work
icl1 (isocitrate lyase) = icl1 (isocitrate lyase) (Mycobacterium tuberculosis, UniProt P9WKK7); settings: read-out: Km for icl1; substrate isocitrate; cited from earlier work
icl2 (isocitrate lyase) = icl2 (isocitrate lyase) (Mycobacterium tuberculosis, UniProt Q8VJU4); settings: read-out: Km for icl2; substrate isocitrate; cited from earlier work
icl2 (isocitrate lyase), sequence (Q8VJU4 whole entry): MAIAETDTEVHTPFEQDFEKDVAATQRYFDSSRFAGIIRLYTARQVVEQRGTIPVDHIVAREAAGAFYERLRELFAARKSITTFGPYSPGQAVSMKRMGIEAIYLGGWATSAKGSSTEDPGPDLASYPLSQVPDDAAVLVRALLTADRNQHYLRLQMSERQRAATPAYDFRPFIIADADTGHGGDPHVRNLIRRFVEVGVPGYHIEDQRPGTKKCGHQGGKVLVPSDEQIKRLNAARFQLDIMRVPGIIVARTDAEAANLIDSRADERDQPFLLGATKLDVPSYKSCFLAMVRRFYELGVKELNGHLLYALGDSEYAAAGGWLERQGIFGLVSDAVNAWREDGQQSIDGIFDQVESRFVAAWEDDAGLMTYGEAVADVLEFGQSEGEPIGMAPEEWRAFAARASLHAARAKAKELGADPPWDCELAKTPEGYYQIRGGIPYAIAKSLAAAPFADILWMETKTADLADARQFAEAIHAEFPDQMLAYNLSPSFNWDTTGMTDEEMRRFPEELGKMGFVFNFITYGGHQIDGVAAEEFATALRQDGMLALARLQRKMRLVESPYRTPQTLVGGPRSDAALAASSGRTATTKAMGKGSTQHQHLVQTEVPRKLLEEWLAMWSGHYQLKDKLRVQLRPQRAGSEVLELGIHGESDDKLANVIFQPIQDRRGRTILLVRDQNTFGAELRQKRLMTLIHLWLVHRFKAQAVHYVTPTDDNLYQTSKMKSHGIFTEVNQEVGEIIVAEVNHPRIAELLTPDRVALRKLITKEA

isocitrate lyase (icl), sequence (P0A9G6 whole entry): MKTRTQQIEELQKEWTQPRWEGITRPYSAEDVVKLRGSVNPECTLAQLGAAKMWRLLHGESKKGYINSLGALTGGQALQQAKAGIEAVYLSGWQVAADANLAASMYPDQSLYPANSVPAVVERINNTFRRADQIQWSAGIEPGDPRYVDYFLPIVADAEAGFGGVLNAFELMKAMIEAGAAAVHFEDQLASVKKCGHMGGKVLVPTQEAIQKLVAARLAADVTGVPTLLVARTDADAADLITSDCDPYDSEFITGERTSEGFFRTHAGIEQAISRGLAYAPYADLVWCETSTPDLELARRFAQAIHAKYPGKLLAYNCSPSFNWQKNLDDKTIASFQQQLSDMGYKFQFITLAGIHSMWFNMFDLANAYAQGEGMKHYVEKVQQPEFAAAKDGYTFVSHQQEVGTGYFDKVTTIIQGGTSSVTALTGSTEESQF
icl1 (isocitrate lyase), sequence (P9WKK7 whole entry): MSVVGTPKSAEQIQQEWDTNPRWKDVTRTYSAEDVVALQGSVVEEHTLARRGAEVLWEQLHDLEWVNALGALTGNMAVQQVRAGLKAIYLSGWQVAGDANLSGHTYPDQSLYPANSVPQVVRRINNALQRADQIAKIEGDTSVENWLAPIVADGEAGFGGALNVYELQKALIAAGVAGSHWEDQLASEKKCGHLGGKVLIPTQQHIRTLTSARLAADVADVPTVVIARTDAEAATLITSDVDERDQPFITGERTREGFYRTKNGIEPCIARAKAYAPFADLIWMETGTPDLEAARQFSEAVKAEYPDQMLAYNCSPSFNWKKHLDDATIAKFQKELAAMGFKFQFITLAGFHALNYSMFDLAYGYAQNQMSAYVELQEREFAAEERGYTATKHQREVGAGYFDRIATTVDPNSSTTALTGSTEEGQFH

icd1 (isocitrate dehydrogenase, Rv 3339c) (Mycobacterium tuberculosis H37Rv)
Km [1]: 12 µM

O=C(O)CC(C(=O)O)C(O)C(=O)O (stereo not shown) [isocitrate]
Km (isocitrate lyase (icl)): 604 µM
Km (icl1 (isocitrate lyase)): ~115 µM
Km (icl2 (isocitrate lyase)): ~1500 µM
